{"source": "patent US12091425B2", "about": "(AMGEN INC., priority 2016, dated 2024)", "data": [{"target": "T1, Mcl-1/Bim interaction, recombinant human Mcl-1 (171-327) (Homo sapiens, UniProt Q07820)", "T1 construct": "made in house", "T1 sequence (Q07820 171-327)": "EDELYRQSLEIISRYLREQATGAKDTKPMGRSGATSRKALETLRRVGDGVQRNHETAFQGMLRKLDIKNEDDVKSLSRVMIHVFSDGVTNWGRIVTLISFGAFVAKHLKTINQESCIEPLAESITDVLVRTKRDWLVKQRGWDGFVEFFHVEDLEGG", "test": "Cell free Mcl-1: Bim Affinity Assay (Mcl-1 HTRF)", "format": "binding", "settings": "TR-FRET, 0.1 nM Mcl-1 (171-327), 0.05 nM biotin-Bim (51-76)", "method_in_brief": "(§1)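 TR-FRET competition assay with biotinylated human Bim peptide (residues 51-76); reaction plates incubated overnight before reading. IC50 values came from duplicate data fitted to a four-parameter sigmoidal competition curve.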", "units": {"IC50": "nM"}, "values": [{"smiles": "CC[C@@H]1CC/C=C/[C@H](OCCN2CCOCC2)[C@@H]2CC[C@H]2CN2C[C@@]3(CCCc4cc(Cl)ccc43)COc3ccc(cc32)C(=O)NS1(=O)=O", "note": "[Example 984, (1S,3′R,6′R,7′S,8′E,12′R)-6-chloro-12′-ethyl-7′-(2-(4-morpholinyl)ethoxy)-3,4-dihydro-2H,15′H-spiro[naphthalene-1,22′-[20]oxa[13]thia[1,14]diazatetracyclo[14.7.2.0^3,6.0^19,24]pentacosa [8,16,18,24]tetraen]-15′-one 13′,13′-dioxide]", "IC50": 1.09}, {"smiles": "CC[C@@H]1CC/C=C/[C@H](OCCO[C@H]2CCCCO2)[C@@H]2CC[C@H]2CN2C[C@@]3(CCCc4cc(Cl)ccc43)COc3ccc(cc32)C(=O)NS1(=O)=O", "note": "(mixture of isomers) [Example 969]", "IC50": 2.91}, {"smiles": "CC[C@@H]1CC/C=C/[C@H](OCc2ccccn2)[C@@H]2CC[C@H]2CN2C[C@@]3(CCCc4cc(Cl)ccc43)COc3ccc(cc32)C(=O)NS1(=O)=O", "note": "[Example 976, (1S,3′R,6′R,7′S,8′E,12′R)-6-chloro-12′-ethyl-7′-(2-pyridinylmethoxy)-3,4-dihydro-2H,15′H-spiro[naphthalene-1,22′-[20]oxa[13]thia[1,14]diazatetracyclo[14.7.2.0^3,6.0^19,24]pentacosa [8,16,18,24]tetraen]-15′-one 13′,13′-dioxide]", "IC50": 10.4}, {"smiles": "O=C1NS(=O)(=O)C(C(F)F)CCC=CC(O)C2CCC2CN2CC3(CCCc4cc(Cl)ccc43)COc3ccc1cc32", "note": "(single isomer, unassigned) [Example 438]", "IC50": 0.731}, {"smiles": "COCC[C@H]1CC/C=C/[C@H](O)[C@@H]2CC[C@H]2CN2C[C@@]3(CCCc4cc(Cl)ccc43)COc3ccc(cc32)C(=O)NS1(=O)=O", "note": "(single isomer, unassigned) [Example 443]", "IC50": 1.51}, {"smiles": "CC[C@@H]1CC/C=C\\[C@@H](NC(=O)C(C)C)[C@@H]2CC[C@H]2CN2C[C@@]3(CCCc4cc(Cl)ccc43)COc3ccc(cc32)C(=O)NS1(=O)=O", "note": "[Example 1082]", "IC50": 18}, {"smiles": "CCOC[C@H]1CC/C=C/[C@H](O)[C@@H]2CC[C@H]2CN2C[C@@]3(CCCc4cc(Cl)ccc43)COc3ccc(cc32)C(=O)NS1(=O)=O", "note": "(single isomer, unassigned) [Example 440]", "IC50": 2.44}]}, {"target": "T1, Mcl-1/Bim interaction, recombinant human Mcl-1 (171-327)", "test": "Cell free Mcl-1: Bim Affinity Assay (Mcl-1 HTRF)", "format": "binding", "settings": "cell free Mcl-1:Bim TR-FRET, recombinant human Mcl-1 (171-327)", "method_in_brief": "as §1", "units": {"IC50": "nM"}, "values": [{"smiles": "CC1(C)CCC[C@H](O)[C@@H]2CC[C@H]2CN2C[C@@]3(CCCc4cc(Cl)ccc43)COc3ccc(cc32)C(=O)NS1(=O)=O", "note": "[Example 770, (1S,3′R,6′R,7′S)-6-chloro-7′-hydroxy-11′,11′-dimethyl-3,4-dihydro-2H,14′H-spiro[naphthalene-1,21′-[19]oxa[12]thia[1,13]diazatetracyclo[13.7.2.0^3,6.0^18,23]tetracosa[15,17,23]trien]-14′-one 12′,12′-dioxide]", "IC50": 1.33}, {"smiles": "O=C1NS(=O)(=O)CCCCC[C@@H](NCC(F)(F)F)[C@@H]2CC[C@H]2CN2C[C@@]3(CCCc4cc(Cl)ccc43)COc3ccc1cc32", "note": "(single isomer, unassigned) [Example 930]", "IC50": 19.6}, {"smiles": "O=C1NS(=O)(=O)CC/C=C\\[C@@H](O)C[C@@H]2CC[C@H]2CN2C[C@@]3(CCCc4cc(Cl)ccc43)COc3ccc1cc32", "note": "(single isomer, unassigned) [Example 883, (1S,3′R,6′S,8′S,9′Z)-6-chloro-8′-hydroxy-3,4-dihydro-2H,15′H-spiro[naphthalene-1,22′[20]oxa[13]thia[1,14]diazatetracyclo[14.7.2.0^3,6.0^19,24]pentacosa[9,16,18,24]tetraen]-15′-one 13′,13′-dioxide or (1S,3′R,6′S,8′R,9′Z)-6-chloro-8′-hydroxy-3,4-dihydro-2H,15′H-spiro[naphthalene-1,22′-[20]oxa[13]thia[1,14]diazatetracyclo[14.7.2.0^3,6.0^19,24]pentacosa [9,16,18,24]tetraen]-15′-one 13′,13′-dioxide]", "IC50": 48.5}, {"smiles": "CN[C@H]1CCCCCS(=O)(=O)NC(=O)c2ccc3c(c2)N(C[C@@H]2CC[C@H]21)C[C@@]1(CCCc2cc(Cl)ccc21)CO3", "note": "(single isomer, unassigned) [Example 927, (1S,3′R,6′R,7′S)-6-chloro-7′-(methylamino)-3,4-dihydro-2H,15′H-spiro[naphthalene-1,22′-[20]oxa[13]thia[1,14]diazatetracyclo[14.7.2.0^3,6.0^19,24]pentacosa [16,18,24]trien]-15′-one 13′,13′-dioxide or (1S,3′R,6′R,7′R)-6-chloro-7′-(methylamino)-3,4-dihydro-2H,15′H-spiro[naphthalene-1,22′-[20]oxa[13]thia[1,14]diazatetracyclo[14.7.2.0^3,6.0^19,24]pentacosa [16,18,24]trien]-15′-one 13′,13′-dioxide]", "IC50": 46.2}, {"smiles": "CC(=O)N[C@@H]1CCCCCS(=O)(=O)NC(=O)c2ccc3c(c2)N(C[C@@H]2CC[C@H]21)C[C@@]1(CCCc2cc(Cl)ccc21)CO3", "note": "(single isomer, unassigned) [Example 935, N-((1S,3′R,6′R,7′R)-6-chloro-13′,13′-dioxido-15′-oxo-3,4-dihydro-2H-spiro[naphthalene-1,22′-[20]oxa[13]thia[1,14]diazatetracyclo[14.7.2.0^3,6.0^19,24]pentacosa [16,18,24]trien]-7′-yl)acetamide or N-((1S,3′R,6′R,7′S)-6-chloro-13′,13′-dioxido-15′-oxo-3,4-dihydro-2H-spiro[naphthalene-1,22′-[20]oxa[13]thia[1,14]diazatetracyclo[14.7.2.0^3,6.0^19,24]pentacosa [16,18,24]trien]-7′-yl)acetamide]", "IC50": 2.07}, {"smiles": "O=C1NS(=O)(=O)CCCOC[C@H](O)[C@@H]2CC[C@H]2CN2C[C@@]3(CCCc4cc(Cl)ccc43)COc3ccc1cc32", "note": "(single isomer, unassigned) [Example 870, (3R,6R,7R,22S)-6′-chloro-7-hydroxy-3′,4′-dihydro-2′H,15H-spiro[9,20-dioxa-13-thia-1,14-diazatetracyclo[14.7.2.0^3,6.0^19,24]pentacosa-16,18,24-triene-22,1′-naphthalen]-15-one 13,13-dioxide or (3R,6R,7S,22S)-6′-chloro-7-hydroxy-3′,4′-dihydro-2′H,15H-spiro[9,20-dioxa-13-thia-1,14-diazatetra-cyclo[14.7.2.0^3,6.0^19,24]pentacosa-16,18,24-triene-22,1′-naphthalen]-15-one 13,13-dioxide]", "IC50": 8.26}, {"smiles": "O=C1NS(=O)(=O)CCOC[C@@H](O)[C@@H]2CC[C@H]2CN2C[C@@]3(CCCc4cc(Cl)ccc43)COc3ccc1cc32", "note": "(single isomer, unassigned) [Example 866, (3R,6R,7S,21S)-6′-chloro-7-hydroxy-3′,4′-dihydro-2′H,14H-spiro[9,19-dioxa-12-thia-1,13-diazatetracyclo[13.7.2.0^3,6.0^18,23]tetracosa-15,17,23-triene-21,1′-naphthalen]-14-one 12,12-dioxide or (3R,6R,7R,21S)-6′-chloro-7-hydroxy-3′,4′-dihydro-2′H,14H-spiro[9,19-dioxa-12-thia-1,13-diazatetracyclo[13.7.2.0^3,6.0^18,23]tetracosa-15,17,23-triene-21,1′-naphthalen]-14-one 12,12-dioxide]", "IC50": 9.53}, {"smiles": "C[C@@H]1CCC[C@H](O)[C@@H]2CC[C@H]2CN2C[C@@]3(CCCc4cc(Cl)ccc43)COc3ccc(cc32)C(=O)NS1(=O)=O", "note": "[Example 761, (1S,3′R,6′R,7′S,11′R)-6-chloro-7′-hydroxy-11′-methyl-3,4-dihydro-2H,14′H-spiro[naphthalene-1,21′-[19]oxa[12]thia[1,13]diazatetracyclo[13.7.2.0^3,6.0^18,23]tetracosa[15,17,23]trien]-14′-one 12′,12′-dioxide]", "IC50": 1.78}]}]}
